Data on 1 compound can be found in the NIST ThermoML archive (doi:10.1016/j.fluid.2019.05.006).

For the data set the following is noted: 101.33 kPa, Liquid, Falling or rolling sphere viscometry.

± gives the expanded uncertainty stated by the source.

The viscosity is the internal friction of a fluid under shear. In the case of `C[N+](C)(C)CCO.NCC(=O)[O-]` [2-hydroxy-N,N,N-trimethylethanaminium glycinate], the viscosity is, setting by setting: (308.15 K) 84.3 ± 1.6 mPa·s; (318.15 K) 29.4 ± 0.7 mPa·s; (328.15 K) 14.3 ± 0.6 mPa·s; (338.15 K) 7.2 ± 0.3 mPa·s.
